Test results taken from article PMC9572397, “Garcinia cambogia Phenolics as Potent Anti-COVID-19 Agents: Phytochemical Profiling, Biological Activities, and Molecular Docking” (Plants, 2022).

Target: SARS-CoV-2 3CL Protease (Severe acute respiratory syndrome coronavirus 2, UniProt P0DTD1)
Assay: 3CL protease SARS-CoV-2 activity (M^Pro assay), fluorescence kit
Format: biochemical
Conditions: for Kinetic Activity: positive control 120; for ∆RFU: ∆T 30, positive control 100

Row | SMILES | IC50 | Kinetic Activity (Conc. 0.1) | ∆RFU (Conc. 0.1) | Kinetic Activity (Conc. 1) | ∆RFU (Conc. 1) | Kinetic Activity (Conc. 10) | ∆RFU (Conc. 10) | Kinetic Activity (Conc. 100) | ∆RFU (Conc. 100) | reduction of the protease activity (in words) (final concentration of 50 μM, compared to the plumbagin positive standard)
1 | O=c1cc(-c2ccc(O)c(-c3c(O)cc(O)c4c(=O)cc(-c5ccc(O)cc5)oc34)c2)oc2cc(O)cc(O)c12 [Compound 2, amentoflavone] | 136 µM | 117.505 | 97.92 | 112.981 | 94.15 | 94.7529 | 78.96 | 44.4244 | 37.02 | –
2 | O=c1cc(-c2ccc(O)cc2)oc2c([C@@H]3O[C@H](CO)[C@@H](O)[C@H](O)[C@H]3O)c(O)cc(O)c12 [Compound 3, vitexin] | 231 µM | 117.109 | 97.59 | 110.257 | 91.88 | 99.133 | 82.61 | 46.7405 | 38.95 | –
3 | C[C@@H]1O[C@@H](OC[C@H]2O[C@@H](Oc3c(-c4ccc(O)c(O)c4)oc4cc(O)cc(O)c4c3=O)[C@H](O)[C@@H](O)[C@@H]2O)[C@H](O)[C@H](O)[C@H]1O [Compound 4, rutin] | – | 116.077 | 96.73 | 110.065 | 91.72 | 92.9049 | 77.42 | 32.3043 | 26.92 | –
4 | C[C@@H]1O[C@@H](O[C@H]2[C@H](Oc3cc(O)c4c(c3)O[C@H](c3ccc(O)cc3)CC4=O)O[C@H](CO)[C@@H](O)[C@@H]2O)[C@H](O)[C@H](O)[C@H]1O [Compound 5, naringin] | 28.6 µM | 117.637 | 98.03 | 101.965 | 84.97 | 80.2328 | 66.86 | 25.8243 | 21.52 | significant reduction
5 | Oc1cc(O)c2c(c1)O[C@H](c1ccc(O)c(O)c1)[C@@H](O)C2 [Compound 6, catechin] | 90.3 µM | 113.953 | 94.96 | 107.173 | 89.31 | 83.2328 | 69.36 | 33.3003 | 27.75 | –
6 | O=C(O)/C=C/c1ccc(O)cc1 [Compound 7, p-coumaric acid] | 471 µM | 118.477 | 98.73 | 113.905 | 94.92 | 100.333 | 83.61 | 42.0724 | 35.06 | –
7 | O=C(O)c1cc(O)c(O)c(O)c1 [Compound 8, gallic acid] | 178 µM | 117.505 | 97.92 | 109.237 | 91.03 | 93.0969 | 77.58 | 29.8323 | 24.86 | –
8 | CC1=CC(=O)c2c(O)cccc2C1=O [Plumbagin, reference compound] | 87.6 µM | 115.069 | 95.89 | 102.853 | 85.71 | 77.9528 | 64.96 | 27.0243 | 22.52 | –
